Earlier results in patent US20230303712A1, “METHODS OF TREATING GLIOBLASTOMA” (Ramot at Tel-Aviv University Ltd., priority 2020, published 2023).

T1: E-Selectin (Homo sapiens, UniProt P16581)
T1 sequence (P16581 22-610): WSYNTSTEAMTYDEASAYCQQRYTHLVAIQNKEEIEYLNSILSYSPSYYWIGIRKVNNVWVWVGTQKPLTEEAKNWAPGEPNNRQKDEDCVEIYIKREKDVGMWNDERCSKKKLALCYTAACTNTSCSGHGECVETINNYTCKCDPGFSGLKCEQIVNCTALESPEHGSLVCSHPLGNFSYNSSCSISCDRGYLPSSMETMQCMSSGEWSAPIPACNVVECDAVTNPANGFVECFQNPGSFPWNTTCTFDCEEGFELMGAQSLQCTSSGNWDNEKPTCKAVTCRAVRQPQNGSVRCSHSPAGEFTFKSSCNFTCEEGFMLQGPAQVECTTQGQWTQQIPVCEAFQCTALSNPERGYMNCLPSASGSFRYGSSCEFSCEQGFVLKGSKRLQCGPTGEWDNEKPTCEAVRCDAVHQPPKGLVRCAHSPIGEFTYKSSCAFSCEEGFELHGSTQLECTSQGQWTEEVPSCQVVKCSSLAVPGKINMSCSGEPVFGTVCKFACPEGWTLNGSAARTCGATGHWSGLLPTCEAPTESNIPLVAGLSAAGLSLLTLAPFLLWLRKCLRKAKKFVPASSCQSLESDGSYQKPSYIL

T2: L-Selectin (Homo sapiens, UniProt P14151)
T2 sequence (P14151 39-372): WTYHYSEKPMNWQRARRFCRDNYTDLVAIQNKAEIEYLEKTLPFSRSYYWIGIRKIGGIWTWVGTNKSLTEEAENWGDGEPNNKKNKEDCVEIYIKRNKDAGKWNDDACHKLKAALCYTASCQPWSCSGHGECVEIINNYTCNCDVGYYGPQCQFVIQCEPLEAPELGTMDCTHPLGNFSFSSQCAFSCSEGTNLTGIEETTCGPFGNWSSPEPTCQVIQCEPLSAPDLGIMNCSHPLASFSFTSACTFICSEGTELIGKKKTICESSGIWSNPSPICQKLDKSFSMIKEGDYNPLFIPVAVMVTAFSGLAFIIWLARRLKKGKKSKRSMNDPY

T3: P-Selectin (Homo sapiens, UniProt P16109)
T3 sequence (P16109 42-830): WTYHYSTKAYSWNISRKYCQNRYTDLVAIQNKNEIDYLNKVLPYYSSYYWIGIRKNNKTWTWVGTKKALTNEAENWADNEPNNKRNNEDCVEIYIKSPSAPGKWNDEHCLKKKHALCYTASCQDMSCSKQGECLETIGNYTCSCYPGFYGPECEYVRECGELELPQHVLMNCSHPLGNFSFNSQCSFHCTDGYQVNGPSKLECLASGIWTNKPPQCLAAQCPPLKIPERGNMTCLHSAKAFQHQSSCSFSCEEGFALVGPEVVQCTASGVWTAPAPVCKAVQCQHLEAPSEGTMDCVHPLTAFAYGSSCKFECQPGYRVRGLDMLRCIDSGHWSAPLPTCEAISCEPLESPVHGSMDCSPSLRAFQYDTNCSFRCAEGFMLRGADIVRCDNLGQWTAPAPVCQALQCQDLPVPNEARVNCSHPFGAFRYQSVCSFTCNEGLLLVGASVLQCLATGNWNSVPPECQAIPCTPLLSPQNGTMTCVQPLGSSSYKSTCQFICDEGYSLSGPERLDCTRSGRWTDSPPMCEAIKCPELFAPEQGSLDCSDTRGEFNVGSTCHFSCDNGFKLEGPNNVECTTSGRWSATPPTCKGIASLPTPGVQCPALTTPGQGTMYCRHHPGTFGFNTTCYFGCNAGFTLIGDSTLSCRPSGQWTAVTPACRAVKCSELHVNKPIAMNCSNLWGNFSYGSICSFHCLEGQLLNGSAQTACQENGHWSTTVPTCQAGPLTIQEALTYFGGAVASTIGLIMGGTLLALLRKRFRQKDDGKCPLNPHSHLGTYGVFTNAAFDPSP

B1: crizanlizumab: Humanized monoclonal anti-P-selectin antibody (antibody, chains of the INN, looked up, V domains shown)
VH: QVQLVQSGAEVKKPGASVKVSCKVSGYTFTSYDINWVRQAPGKGLEWMGWIYPGDGSIKYNEKFKGRVTMTVDKSTDTAYMELSSLRSEDTAVYYCARRGEYGNYEGAMDYWGQGTLVTVSS
VL: DIQMTQSPSSLSASVGDRVTITCKASQSVDYDGHSYMNWYQQKPGKAPKLLIYAASNLESGVPSRFSGSGSGTDFTLTISSLQPEDFATYYCQQSDENPLTFGGGTKVEIK

Assays:
[1] = different animal models; cited from earlier work
E-Selectin = target: T1, E-Selectin; settings: in humans in vitro; cited from earlier work
L-Selectin = target: T2, L-Selectin; settings: in humans in vitro; cited from earlier work
P-Selectin = target: T3, P-Selectin; settings: in humans in vitro; cited from earlier work
[2] = administered systemically; cited from earlier work

| Molecule | anti-inflammatory effects [1] | E-selectin-dependent adhesion (E-Selectin) | L-selectin-dependent adhesion (L-Selectin) | P-selectin-dependent adhesion (P-Selectin) | tolerability in patients [2] |
| --- | --- | --- | --- | --- | --- |
| O=C(O)Cc1cccc(-c2cc(CCCCCCc3ccc(OC4O[C@H](CO)C(O)[C@H](O)[C@@H]4O)c(-c4cccc(CC(=O)O)c4)c3)ccc2OC2O[C@H](CO)C(O)[C@H](O)[C@@H]2O)c1 (stereo partly drawn) [Bimosiamose (TBC1269)] | anti-inflammatory effects | inhibit | inhibit | inhibit |  |
| inclacumab: monoclonal antibody directed towards P-selectin |  |  |  |  | well tolerated |
| B1 |  |  |  |  | well tolerated |
